≈ marks a conversion by molar mass, not a printed value. Where “and” joins values, the source holds several entries; their conditions need not be identical. Equal values may be shown once.
How the values were obtained:
[1] = tested on: Influenza B virus
[2] = tested on: Influenza A virus
[3] = tested on: Influenza B virus; remark: listed apart in the source
[4] = tested on: Influenza A virus; remark: listed apart in the source
[5] = in vivo; conditions: rat, po
[6] = tested on: Influenza A virus; remark: listed apart in the source
[7] = Plasma half life in rat after 10 mg/kg oral dosage; assay type: ADME, organism-based; design: dose 10 mg/kg, route oral
[8] = tested on: Influenza A virus; remark: listed apart in the source
[9] = tested on: Influenza A virus; remark: listed apart in the source
[10] = Plasma half life in rat after 2 mg/kg intravenous dosage; assay type: ADME, organism-based; design: dose 2 mg/kg, route intravenous
[11] = tested on: Mus musculus; assay: Single intranasal effective dose required to inhibit viral replication in the 7-Day mouse efficacy model (Dosed with influenza A/Singapore /1/57); assay type: functional; conditions: inhaled or nasal, 168 h
[12] = in vivo; conditions: rat, plasma
[13] = in vivo; conditions: rat
[14] = tested on: Influenza A virus; remark: listed apart in the source
[15] = in vivo; conditions: rat, po; remark: listed apart in the source
[16] = in vivo; conditions: rat, inhaled or intranasal
[17] = tested on: Influenza B virus; remark: listed apart in the source
[18] = Plasma half life in rat after 0.4 mg/kg intratracheal dosage; assay type: ADME, organism-based; design: dose 0.4 mg/kg, route endotracheal; conditions: inhaled or intranasal
[19] = biological target: Neuraminidase (Influenza A virus (A/Puerto Rico/8/1934(H1N1)), UniProt P03468)
Neuraminidase (Influenza A virus (A/Puerto Rico/8/1934(H1N1)), UniProt P03468), sequence (P03468 whole entry): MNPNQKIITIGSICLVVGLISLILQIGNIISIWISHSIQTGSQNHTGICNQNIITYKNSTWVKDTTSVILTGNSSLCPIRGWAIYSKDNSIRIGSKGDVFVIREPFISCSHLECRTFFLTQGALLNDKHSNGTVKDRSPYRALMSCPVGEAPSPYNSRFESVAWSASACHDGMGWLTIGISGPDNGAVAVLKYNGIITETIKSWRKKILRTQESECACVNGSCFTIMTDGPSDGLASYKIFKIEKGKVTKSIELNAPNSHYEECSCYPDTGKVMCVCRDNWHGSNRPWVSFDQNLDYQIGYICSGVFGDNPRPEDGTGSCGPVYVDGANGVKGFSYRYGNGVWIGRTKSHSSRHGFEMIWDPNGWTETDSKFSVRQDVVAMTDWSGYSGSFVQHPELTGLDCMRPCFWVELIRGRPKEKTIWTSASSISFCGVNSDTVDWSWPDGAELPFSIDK

[20] = tested on: Mus musculus; assay: Single intranasal effective dose required to inhibit viral replication in the 7-Day mouse efficacy model (Dosed with influenza A/Victoria/3/75); assay type: functional; conditions: inhaled or nasal, 168 h
[21] = biological target: Neuraminidase (Influenza A virus (A/Puerto Rico/8/1934(H1N1)), UniProt P03468); remark: listed apart in the source
[22] = biological target: Neuraminidase (Influenza A virus (A/Puerto Rico/8/1934(H1N1)), UniProt P03468); remark: listed apart in the source

SMILES: [H]/N=C(\N)N[C@H]1C=C(C(=O)O)O[C@@H]([C@H](O)[C@H](O)CO)C1NC(C)=O (some centres not stated)
- EC50 [1]: 11.5 ng/mL (≈ 34.6 nM)
- EC50 [2]: 5.5 ng/mL (≈ 16.6 nM)
- EC50 [3]: 21 ng/mL (≈ 63.2 nM)
- EC50 [4]: 0.27 ng/mL (≈ 0.812 nM)
- bioavailability [5]: 2.7%
- EC50 [6]: 56 ng/mL and > 100 ng/mL
- half-life [7]: 15 min
- EC50 [8]: 35 ng/mL (≈ 105 nM)
- EC50 [9]: 2.4 ng/mL (≈ 7.22 nM)
- half-life [10]: 24 min
- ED90 [11]: 2.92 mg/kg
- clearance [12]: 1.42 mL/min/kg
- Vd [13]: 0.03 L/kg
- EC50 [14]: 2.7 ng/mL (≈ 8.12 nM)

SMILES: COC(=O)C1=C[C@H](N=C(N)N)C(NC(C)=O)[C@H]([C@H](OC(=O)NCCCNC(=O)c2ccc(C(=O)NCCCNC(=O)O[C@H](C(O)CO)[C@@H]3OC(C(=O)O)=C[C@H](N=C(N)N)C3NC(C)=O)cc2)C(O)CO)O1 (some centres not stated)
- EC50 [3]: 0.32 ng/mL (≈ 0.317 nM)
- EC50 [4]: 0.06 ng/mL (≈ 0.0595 nM)
- EC50 [6]: 0.02 ng/mL (≈ 0.0198 nM)
- bioavailability [15]: < 1%
- EC50 [8]: 0.009 ng/mL (≈ 0.00892 nM)
- EC50 [9]: 0.05 ng/mL (≈ 0.0496 nM)
- bioavailability [16]: 67%
- half-life [10]: 24 min
- EC50 [17]: 0.022 ng/mL (≈ 0.0218 nM)
- half-life [18]: 120 min
- clearance [12]: 0.7 mL/min/kg
- Vd [13]: 0.2 L/kg
- EC50 [14]: 0.03 ng/mL (≈ 0.0297 nM)

SMILES: CC(=O)NC1[C@@H](N=C(N)N)C=C(C(=O)O)O[C@H]1[C@H](OC(=O)NCCCCCCCCCCCCNC(=O)O[C@H](C(O)CO)[C@@H]1OC(C(=O)O)=C[C@H](NC(=N)N)C1NC(C)=O)C(O)CO (some centres not stated)
- EC50 [1]: 0.05 ng/mL and 0.1 ng/mL
- IC50 [19]: 21.7 nM
- EC50 [3]: 0.37 ng/mL (≈ 0.403 nM)
- bioavailability [5]: < 1%
- half-life [7]: 294 min
- ED90 [20]: 0.03 mg/kg
- EC50 [9]: 0.032 ng/mL (≈ 0.0349 nM)
- IC50 [21]: 61 nM
- bioavailability [16]: 67%
- half-life [10]: 132 min
- IC50 [22]: 7.86 nM
- half-life [18]: 300 min
- clearance [12]: 0.7 mL/min/kg
- Vd [13]: 0.2 L/kg
- EC50 [14]: 0.032 ng/mL (≈ 0.0349 nM)

Reference: ChEMBL document CHEMBL1143586, “Dimeric zanamivir conjugates with various linking groups are potent, long-lasting inhibitors of influenza neuraminidase including H5N1 avian influenza” (J Med Chem, 2005)
